Laboratory results: patent publication US10351522B2, “Sulfonamide derivative and pharmaceutically acceptable acid addition salt thereof” (UNIVERSITY OF TSUKUBA, priority 2015, dated 2019)

Columns and labels:
[1] = target: T1, human OX2R (Homo sapiens, UniProt O43614); assay: Agonist activity against OX2R: intracellular calcium (Fura-2AM, FDSS7000) in CHOOX2R cells; type: cell-based; details: relative to orexin-A as full agonist (100%)
T1 construct: expressed in transfected cells; host or cells: CHO (Chinese hamster ovary) cells, line CHOOX2R, co-expressing NFAT-luciferase
T1 sequence (O43614 1-444): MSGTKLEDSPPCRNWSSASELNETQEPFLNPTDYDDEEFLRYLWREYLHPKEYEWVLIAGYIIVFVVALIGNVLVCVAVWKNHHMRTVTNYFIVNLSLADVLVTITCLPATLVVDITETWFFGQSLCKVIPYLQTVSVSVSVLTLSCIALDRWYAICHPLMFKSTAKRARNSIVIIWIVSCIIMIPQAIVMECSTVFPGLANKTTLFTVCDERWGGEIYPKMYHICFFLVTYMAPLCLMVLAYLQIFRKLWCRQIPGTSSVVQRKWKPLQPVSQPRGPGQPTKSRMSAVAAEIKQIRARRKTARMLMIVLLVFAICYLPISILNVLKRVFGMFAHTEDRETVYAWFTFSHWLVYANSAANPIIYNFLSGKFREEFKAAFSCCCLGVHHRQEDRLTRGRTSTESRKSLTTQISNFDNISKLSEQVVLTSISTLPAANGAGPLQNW
Summary of the method: (§1)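 Response is agonist activity at 0.1, 1.0 or 10 μM compound as a percentage of the orexin-A full-agonist maximum, taken from 340/380 nm Fura-2 ratio changes. Each cell line is CHO constitutively expressing human OX1R or OX2R with NFAT-luciferase, dye-loaded 60 min with 5 μM Fura-2AM; compound range 10^−7–10^−5 M, 1% DMSO.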

[2] = target: T2, human OX1R (Homo sapiens, UniProt O43613); assay: Agonist activity against OX1R: intracellular calcium (Fura-2AM, FDSS7000) in CHOOX1R cells; type: cell-based; details: relative to orexin-A as full agonist (100%); for Emax at 0.1 µM / Emax at 1 µM / Emax at 10 µM: read-out: Response (%) OX1R
T2 construct: expressed in transfected cells; host or cells: CHO (Chinese hamster ovary) cells, line CHOOX1R, co-expressing NFAT-luciferase
T2 sequence (O43613 1-425): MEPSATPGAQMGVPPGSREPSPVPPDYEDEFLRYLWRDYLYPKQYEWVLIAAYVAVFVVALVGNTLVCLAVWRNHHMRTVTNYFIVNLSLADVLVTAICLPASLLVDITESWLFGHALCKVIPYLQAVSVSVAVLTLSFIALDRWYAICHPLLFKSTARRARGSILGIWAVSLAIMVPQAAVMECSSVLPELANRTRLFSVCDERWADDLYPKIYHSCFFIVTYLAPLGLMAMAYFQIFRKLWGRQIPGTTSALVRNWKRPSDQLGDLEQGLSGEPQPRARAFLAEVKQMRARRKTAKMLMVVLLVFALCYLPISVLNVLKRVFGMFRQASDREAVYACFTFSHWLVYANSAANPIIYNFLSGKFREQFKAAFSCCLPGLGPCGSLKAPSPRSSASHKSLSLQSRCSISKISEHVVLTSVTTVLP
Summary of the method: as §1

Row | Compound | Response (%) OX2R ([1]; 0.1 μM test compound) [%] | Response (%) OX2R ([1]; 1.0 μM test compound) [%] | Response (%) OX2R ([1]; 10 μM test compound) [%] | Response (%) OX1R ([2]; 0.1 μM test compound) [%] | Response (%) OX1R ([2]; 1.0 μM test compound) [%] | Response (%) OX1R ([2]; 10 μM test compound) [%] | Response (%) OX2R ([1]; test compound 0.1 μM) [%] | Response (%) OX2R ([1]; test compound 1.0 μM) [%] | Response (%) OX2R ([1]; test compound 10 μM) [%] | Emax at 0.1 µM ([2]; test compound 0.1 μM) [%] | Emax at 1 µM ([2]; test compound 1.0 μM) [%] | Emax at 10 µM ([2]; test compound 10 μM) [%] | Response (%) OX1R ([2]; test compound 0.1 μM) [%] | Response (%) OX1R ([2]; test compound 1.0 μM) [%] | Response (%) OX1R ([2]; test compound 10 μM) [%]
1 | COc1ccc(-c2cccc(C(=O)N(C)C)c2)cc1S(=O)(=O)Nc1cccc(NC(=O)c2cccc(C)c2)c1 [Example 15] | 12 | 81 | 114 | <5 | <5 | <5 | – | – | – | – | – | – | – | – | –
2 | COc1ccc(C(=O)NCc2ccccc2)cc1S(=O)(=O)Nc1cccc(NC(=O)Nc2cccc(N(C)C)c2)c1 [Example 100, N-benzyl-3-(N-(3-(3-(3-(dimethylamino)phenyl)ureido)phenyl)sulfamoyl)-4-methoxybenzamide] | – | – | – | – | – | – | <5 | 7 | 49 | < 5 | < 5 | < 5 | – | – | –
3 | COc1ccc(Nc2cccc(NS(=O)(=O)c3cc(-c4cccc(C(=O)N(C)C)c4)ccc3OC)c2)cc1 [Example 29] | 11 | 84 | 81 | <5 | <5 | <5 | – | – | – | – | – | – | – | – | –
4 | COc1ccc(-c2cccc(C(=O)N(C)C)c2)cc1S(=O)(=O)Nc1cccc(NC(=O)Nc2ccccc2C)c1 [Example 51] | 93 | 85 | 88 | <5 | 36 | 67 | – | – | – | – | – | – | – | – | –
5 | COc1cccc(CNc2cccc(NS(=O)(=O)c3cc(-c4cccc(C(=O)N(C)C)c4)ccc3OC)c2)c1 [Example 23] | 54 | 95 | 86 | <5 | 10 | 51 | – | – | – | – | – | – | – | – | –
6 | COc1ccccc1Nc1cccc(NS(=O)(=O)c2cc(-c3cccc(C(=O)N(C)C)c3)ccc2OC)c1 [Example 31] | <5 | 10 | 72 | <5 | <5 | <5 | – | – | – | – | – | – | – | – | –
7 | COc1ccc(-c2cccc(C(=O)N(C)C)c2)cc1S(=O)(=O)Nc1cccc(NCC(=O)NCc2cccc(C)c2)c1 [Example 92, 4′-methoxy-N,N-dimethyl-3′-(N-(3-((2-((3-methylbenzyl)amino)-2-oxoethyl)amino)phenyl)sulfamoyl)-[1,1′-biphenyl]-3-carboxamide] | – | – | – | – | – | – | 35 | 95 | 95 | < 5 | 6 | 30 | – | – | –
8 | COc1ccccc1NC(=O)Nc1cccc(NS(=O)(=O)c2cc(-c3cccc(C(=O)N(C)C)c3)ccc2OC)c1 [Example 52] | 43 | 81 | 78 | <5 | <6 | <7 | – | – | – | – | – | – | – | – | –
9 | COc1ccc(-c2cccc(C(=O)N(C)C)c2)cc1S(=O)(=O)Nc1cccc(N2CCCCN(c3cccc(N(C)C)c3)C2=O)c1 [Example 136] | – | – | – | – | – | – | 144 | 97 | 94 | – | – | – | <5 | 78 | 110
10 | COc1ccc(-c2cccc(C(=O)N(C)C)c2)cc1S(=O)(=O)Nc1cccc(N2CCCN(c3ccccc3)C2=O)c1 [Example 132] | – | – | – | – | – | – | 42 | 100 | 101 | – | – | – | <5 | <5 | 46
11 | COc1ccc(Nc2c(Nc3cccc(NS(=O)(=O)c4cc(-c5cccc(C(=O)N(C)C)c5)ccc4OC)c3)c(=O)c2=O)cc1 [Example 81] | – | – | – | – | – | – | <5 | <5 | 27 | – | – | – | <5 | <5 | 7
